Columns and labels:
[1] = cited from earlier work
[2] = in vivo; cited from earlier work
[3] = biological target: NET (nor-epinephrine transporter) (Homo sapiens, UniProt P23975); conditions: cited from earlier work
[4] = test system: brain-dead, heart-beating cadaver of a pig; assay: Blood pressure and organ maintenance in brain-dead, heart-beating pig under intravenous infusion; type: in vivo
Protocol: The following ingredients: 1 mg (1 ml) adrenaline, 1 mg (1 ml) nor-adrenaline, 0.3 mg (3 ml) T3, 300 mg (3 ml) cortisone, […] (9 ml) Minirin and 1 mg (3 ml) cocaine were dissolved in 50 ml physiological sodium chloride solution.
For reducing the risk of diabetes insipidus, a bolus of […] Minirin was given at the start of the treatment.
The inventor has performed more than 20 experiments with pigs and using cocaine in combination with adrenaline and nor-adrenaline.
FIG. 4 is a diagram over blood pressure during an experiment similar to Experiment 1.

alfa-1 = assay: Potency as replacement of nor-adrenaline (alfa-1-agonist)
Source text: In some embodiments, the adrenaline and/or nor-adrenaline may be partly or entirely replaced by an equivalent substance. For example, phenylephrine is an alfa-1-agonist and may replace nor-adrenaline.

Sequence of NET (nor-epinephrine transporter) (P23975 whole entry, species assumed, the tested form may be a part): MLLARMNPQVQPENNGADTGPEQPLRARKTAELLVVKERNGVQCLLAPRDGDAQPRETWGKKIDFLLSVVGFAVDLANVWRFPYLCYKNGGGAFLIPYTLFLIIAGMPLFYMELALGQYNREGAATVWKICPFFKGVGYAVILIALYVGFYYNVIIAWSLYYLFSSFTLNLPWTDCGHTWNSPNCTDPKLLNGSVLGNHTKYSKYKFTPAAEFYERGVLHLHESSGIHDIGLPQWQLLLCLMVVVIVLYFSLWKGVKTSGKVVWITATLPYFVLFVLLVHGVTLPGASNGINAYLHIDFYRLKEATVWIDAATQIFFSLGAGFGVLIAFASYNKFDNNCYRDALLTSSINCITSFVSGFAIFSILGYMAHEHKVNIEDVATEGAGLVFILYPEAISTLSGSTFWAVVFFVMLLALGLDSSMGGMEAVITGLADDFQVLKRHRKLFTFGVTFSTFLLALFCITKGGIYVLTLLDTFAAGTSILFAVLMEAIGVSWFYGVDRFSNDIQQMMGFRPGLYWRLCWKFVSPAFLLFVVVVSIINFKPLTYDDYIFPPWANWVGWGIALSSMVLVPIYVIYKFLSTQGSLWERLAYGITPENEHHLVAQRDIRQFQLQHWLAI

Q: With `NC(=O)CC[C@@H]1NC(=O)[C@H](Cc2ccccc2)NC(=O)[C@H](Cc2ccc(O)cc2)NC(=O)[C@@H](N)CSSC[C@@H](C(=O)N2CCC[C@H]2C(=O)N[C@@H](CCCN=C(N)N)C(=O)NCC(N)=O)NC(=O)[C@H](CC(N)=O)NC1=O` [ADH] as the compound, how does the half-life-time [1] read?
A: The half-life-time was “about 15 minutes”.

Q: For `CCN(CC)CC(=O)Nc1c(C)cccc1C` [Lidocaine], which “effect of infusion on blood pressure” value [2] is on record?
A: Its value is “vasodilatation and a lowering of the blood pressure”.

Q: Which “potency among NET inhibitors” value [3] does the source give for `CNCCCN1c2ccccc2CCc2ccc(Cl)cc21` [Norclomipramine] here?
A: The value was “highest”.

Q: Which “potency among NET inhibitors” value [3] does the source give for `CNCCCC1c2ccccc2C=Cc2ccccc21` [Protriptylin] here?
A: Its value is “highest”.

Q: With `CC(N)Cc1ccccc1` (stereo not drawn) [amphetamine, alpha-methylphenethylamine] as the compound, how does the “increase of mean arterial pressure” value ([4]; added at 29.5 hours to infusion solution of Experiment 1 without cocaine, constant until 36 hours) read?
A: The value was “about 15 mmHg”.

Q: For `COC(=O)[C@H]1[C@@H](OC(=O)c2ccccc2)C[C@@H]2CC[C@H]1N2C` [cocaine, benzoylmethyl ecgonine], which “potentiation of the effect of blood circulating nor-adrenaline (vasoconstriction)” value ([4]; added together with nor-adrenaline, compared with cocaine) is on record?
A: The value was “much lower levels of nor-adrenaline”.

Q: What about the “blood pressure maintained at a constant level” value ([4]; more than 20 experiments with pigs, in combination with adrenaline and nor-adrenaline, over 24 hours) of the same compound?
A: The value was 70 mmHg.

Q: Which results are given for `CNCCCN1c2ccccc2CCc2ccccc21` [desipramine]?
A: half-life time [1]: 30 h; mean pressure reached on infusion ([4]; Experiment 2, infusion 1.7 to 3.2 ml/hour with adrenaline and nor-adrenaline, from a mean pressure of about 40 mmHg): 80 mmHg; blood pressure after infusion rate was decreased ([4]; Experiment 2, infusion rate decreased to 2.5 and 1.7 ml/hour, never decreased further): about 60 mmHg

Q: Which “potency relative to nor-adrenaline (times less potent)” value (alfa-1) does the source give for `CNC[C@H](O)c1cccc(O)c1` [phenylephrine] here?
A: Its value is “about 5 times”.

Reference: patent US20110281794A1, “C[…]-[…] A[…] ADM[…] A BRAIN-DEAD, HEART-BEATING POTENTIAL ORGAN DONOR” (VIVOLINE MEDICAL AB, priority 2008, published 2011)
